According to PubChem BioAssay (NCI):
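Protocol summary: plate cells (96-well), add compound at 5 concentrations, incubate 48 h, interpolate endpoints linearly. The concentration for 50% growth inhibition is given as GI50. TGI: concentration producing complete growth inhibition.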 *1 amine or outer side, *2 acyl side, *3 side chain or, on linkers, in order; H or OH if unused. Where a SMILES comes first, the peptide text is derived from it. Bridges are numbered along the chain shown (N, C = ends). [ ]: non-standard residue; d: D form. The star is where a group is joined. ξ: configuration not given here. X34 = O=C(C(CCCCNO[*:3])N[*:1])[*:2]; Fmoc = O=C(OCC1c2ccccc2-c2ccccc21)*; ξW = NC(Cc1c[nH]c2ccccc12)C(=O)O; ξP = O=C(O)C1CCCN1

How the values were obtained:
Test in all cases: NCI anticancer screen, dose series, 48 h
EKVX NSCLC = tested on: EKVX NSCLC
HT29 colon = tested on: HT29 colon
M14 melanoma = tested on: M14 melanoma
MOLT-4 leukemia = tested on: MOLT-4 leukemia
NCI-H226 lung = tested on: NCI-H226 lung
NCI-H522 lung = tested on: NCI-H522 lung
RPMI-8226 leukemia = tested on: RPMI-8226 leukemia
SNB-75 CNS = tested on: SNB-75 CNS
T-47D breast = tested on: T-47D breast
TK-10 renal = tested on: TK-10 renal

SMILES | TGI (EKVX NSCLC) | TGI (HT29 colon) | TGI (M14 melanoma) | TGI (MOLT-4 leukemia) | TGI (NCI-H226 lung) | TGI (NCI-H522 lung) | TGI (RPMI-8226 leukemia) | TGI (SNB-75 CNS) | TGI (T-47D breast) | TGI (TK-10 renal) | GI50 (EKVX NSCLC) | GI50 (HT29 colon) | GI50 (M14 melanoma) | GI50 (MOLT-4 leukemia) | GI50 (NCI-H226 lung) | GI50 (NCI-H522 lung) | GI50 (RPMI-8226 leukemia) | GI50 (SNB-75 CNS) | GI50 (T-47D breast) | GI50 (TK-10 renal)
Brc1ccc(CCNCCN2CCCCC2)cc1 | > 100 µM | 15.4 µM | 29.6 µM | > 100 µM | 59 µM | 30.3 µM | > 100 µM | 26.3 µM | 32 µM | 28.8 µM |  |  |  |  |  |  |  |  |  | 
CN(CCC#N)c1ccc(/C=C2\SC(=S)NC2=O)cc1 | > 100 µM | > 100 µM | > 100 µM | > 100 µM | > 100 µM | > 100 µM | > 100 µM | > 100 µM | > 100 µM | > 100 µM |  |  |  |  |  |  |  |  |  | 
COc1cc(/C=C2/C(=O)N(C(=O)c3ccccc3O)N=C2C)cc(OC)c1OC | > 100 µM | > 100 µM | > 100 µM | > 100 µM | > 100 µM | 33.4 µM | > 100 µM | > 100 µM | > 100 µM | > 100 µM |  |  |  |  |  |  |  |  |  | 
COCOC1/C=C/CCCC#C[C@H](C)C(=O)CC1 (stereo not given in full) | 23.1 µM | 13.6 µM | 21 µM | > 29.4 µM | 35 µM | 18.1 µM | 7.63 µM | 25.3 µM | 31.3 µM | 28.6 µM |  |  |  |  |  |  |  |  |  | 
O=C1CCC[C@@H]2NC[C@@H](c3ccc4c(c3)OCO4)[C@H]12 | > 25 µM | > 25 µM | > 25 µM | > 25 µM | > 25 µM | > 25 µM | > 25 µM | > 25 µM | > 25 µM | > 25 µM |  |  |  |  |  |  |  |  |  | 
CN1C(=O)C2C(=O)N(Cc3ccccc3)CC(=O)N2c2cccnc21 (stereo not given) | > 100 µM | > 100 µM | > 100 µM | > 100 µM | > 100 µM | > 100 µM | > 100 µM | > 100 µM | > 100 µM | > 100 µM |  |  |  |  |  |  |  |  |  | 
CCOc1cc(NC(C)=O)ccc1C(=O)NNC(=O)c1ccccc1OC(C)=O | > 70.4 µM | > 100 µM | 26.6 µM | > 40.5 µM | > 59.3 µM | > 100 µM | > 28.6 µM | > 38.7 µM | > 46.4 µM | 7.03 µM |  |  |  |  |  |  |  |  |  | 
Cc1nnc(Nc2ccccc2)o1 | > 100 µM | > 100 µM | > 100 µM | > 100 µM | > 100 µM | > 100 µM | > 100 µM | > 100 µM | > 100 µM | > 100 µM |  |  |  |  |  |  |  |  |  | 
C[C@@]12[C@H]3CC[C@@H]1[C@H](O)C(=O)N2CC3 | > 100 µM | > 100 µM | > 100 µM | > 100 µM | > 100 µM | > 100 µM | > 100 µM | > 100 µM | > 100 µM | > 100 µM |  |  |  |  |  |  |  |  |  | 
NC(=O)CNC(=O)C1CCCN1C(=O)C1CCCCNOC(=O)CC[C@@H](NC(=O)OCC2c3ccccc3-c3ccccc32)C(=O)NC(Cc2c[nH]c3ccccc23)C(=O)N1 (stereo not given in full) (Fmoc-[dE][ξW][X34][ξP]G-NH2; ester 1-3) | > 100 µM | > 100 µM | > 100 µM | > 100 µM | > 100 µM | > 100 µM | > 100 µM | > 100 µM | > 100 µM | > 100 µM |  |  |  |  |  |  |  |  |  | 
COCOC1/C=C/CCCCC2=C(C)C=C(C1)O2 (stereo not given) | > 100 µM | > 100 µM | > 100 µM | > 100 µM | > 100 µM | > 100 µM | > 100 µM | > 100 µM | > 100 µM | > 100 µM |  |  |  |  |  |  |  |  |  | 
COc1cccc(-c2cc(=O)c3ccccc3o2)c1N | > 100 µM | > 100 µM | > 100 µM | > 100 µM | > 100 µM | > 100 µM | > 100 µM | > 100 µM | > 57.3 µM | > 100 µM |  |  |  |  |  |  |  |  |  | 
C=C1CC(COc2cc(=O)oc3ccccc23)(c2ccccc2)OC1=O (stereo not given) | 13.5 µM | 3.4 µM | 3.3 µM | > 20.8 µM | 19.3 µM | 3.88 µM | 4.01 µM | 12.3 µM | 5.27 µM | 3.89 µM |  |  |  |  |  |  |  |  |  | 
CSc1nc(Cl)c2c(n1)Sc1nc3cc4c(cc3n1C2O)OCCO4 (stereo not given) | 36.3 µM | 18.9 µM | 15.5 µM | 16.7 µM | 0.889 µM | 0.386 µM | 2 µM | 36.4 µM | 65.3 µM | 32.9 µM |  |  |  |  |  |  |  |  |  | 
COc1ccc2[nH]c(O)c(/C=c3/cc4c(c(-c5cc(OC)c(OC)c(OC)c5)n3)=Nc3ccccc3-4)c2c1 | > 100 µM | 7.05 µM | > 100 µM | 10.7 µM | > 100 µM | > 100 µM | 11.5 µM | > 100 µM | > 100 µM | > 100 µM | > 100 µM | 2.41 µM | 6.32 µM | 1.94 µM | > 100 µM | 5.03 µM | 1.89 µM | 26.7 µM | 28.5 µM | 18.5 µM
O=C(O)c1cc2c(cc1CC(Cc1ccc3c(c1)CCC3)C(=O)O)CCC2 (stereo not given) | > 100 µM | > 100 µM | > 100 µM | > 100 µM | > 100 µM | > 100 µM | > 100 µM | > 100 µM | > 100 µM | > 100 µM |  |  |  |  |  |  |  |  |  | 
CN(C)/N=N/c1nc2c(c(=O)n(C)c(=O)n2C)n1C | > 100 µM | > 100 µM | > 100 µM | > 100 µM | > 100 µM | > 100 µM | > 100 µM | > 100 µM | > 100 µM | > 100 µM |  |  |  |  |  |  |  |  |  | 
COc1cccc2c(N)c3cccc(C(=O)NCCN(C)C)c3nc12 | 1.09 µM | 0.633 µM | 1.71 µM | 0.264 µM | 0.386 µM | 0.149 µM | 3.87 µM | 0.362 µM | 5.38 µM | 6.14 µM |  |  |  |  |  |  |  |  |  | 
C[N+]1=C2[B-](C(C)(C)C)=[N+](C(C)(C)C)[B-]2(C(C)(C)C)[N+](C)=C2[B-](C(C)(C)C)=[N+](C(C)(C)C)[B-]21C(C)(C)C (stereo not given) | > 100 µM | > 100 µM | > 100 µM | > 100 µM | > 100 µM | > 100 µM | > 100 µM | > 100 µM | > 100 µM | > 100 µM |  |  |  |  |  |  |  |  |  | 
